From patent US20070154449A1, “TIGHT JUNCTION MODULATING PEPTIDES FOR ENHANCED MUCOSAL DELIVERY OF THERAPEUTIC COMPOUNDS” (Nastech Pharmaceutical Company Inc., priority 2005, published 2007)

Tests used:
Format in all cases: cell-based
[1] = tested on: human-derived tracheal/bronchial epithelial cells (EpiAirway™ Tissue model system); assay: Cytotoxicity (LDH assay), EpiAirway tissue model; settings: 1 h incubation, % of 1% Triton X-100 control
Protocol: The amount of cell death was assayed by measuring the release of lactate dehydrogenase (LDH) from the cells into the apical medium using a CytoTox 96 Cytotoxicity Assay Kit (Promega Corp., Madison, Wis.). One percent Octylphenolpoly (ethyleneglycolether)×(Triton X-100™) diluted in phosphate buffered saline (PBS) causes 100% lysis in cultured cells and served herein as a positive control for the LDH assay. Following the one hour incubation period with a test formulation (refer to Table 4 in Example 2 for details of test formulations), the total liquid volume of each insert was brought to a final volume of 200 μl with culture medium. The apical medium was then mixed by pipetting four times with a multichannel pipette set to a 100 μl volume. After mixing, a 100 μl sample from the apical side of each insert was transferred to a new 96-well plate. The apical media samples were sealed with a plate sealer and stored at room temperature for same day analysis or stored overnight at 4° C. for analysis the next day. To measure LDH levels, 5 μl of the 100 μl apical media sample was diluted in 45 μl DPBS in a new 96-well plate. Fresh, cell-free culture medium will be used as a blank. Fifty microliters of substrate solution was added to each well and incubated for 30 minutes at room temperature away from direct light. Following the 30 minute incubation, 50 μl of stop solution was added to each well. Optical density (OD) was measured at 490 nm with a uQuant absorbance plate reader from Biotek Instruments. The measurement of LDH release into the apical media indicates relative cytotoxicity of the samples. Percent cytotoxicity for each test formulation was calculated by subtracting the measured absorbance of the PBS control (basal level of LDH release) from the measured absorbance of the individual test formulation and then dividing that value by the measured absorbance for the 1% Triton X-100™ positive control, multiplied by 100.
The formula used to calculate percent cytotoxicity is as follows: [formula] Osmolality
(§1) Of the total 300 μl volume for each test formulation, only a 20 μl sample was applied to the human-derived tracheal/bronchial epithelial cells (EpiAirway™ Tissue model system) in order to assess the effect each test formulation had on TER, LDH and sample permeation.

[2] = tested on: human-derived tracheal/bronchial epithelial cells (EpiAirway™ Tissue model system); assay: Transepithelial electrical resistance (TER), EpiAirway tissue model; settings: pH 7, 20 μl applied
Protocol: EpiAirway™ culture membranes were received the day before the experiments started. They are shipped in phenol red-free and hydrocortisone-free Dulbecco's Modified Eagle's Medium (DMEM). The cells are ciliated and psudostratefied, grown to confluency on Millipore Multiscreen Caco-2 96-well assay system comprised of a polycarbonate filter system. Upon receipt, the insert system will be stored unopened at 4° C. and/or cultured in 250 μl basal media per well (phenol red-free and hydrocortisone-free Dulbecco's Modified Eagle's Medium (DMEM)) at 37° C./5% CO2 for 24 hours before use.
TER measurements were taken using the REMS Autosampler (World Precision Instruments, Sarasota, Fla.) with the electrode leads. The electrodes and a tissue culture blank insert will be equilibrated for at least 20 minutes in MatTek Air-100™ medium with the power off prior to checking calibration. The background resistance of the insert system has been established by multiple measurements of a blank insert plate and the same value was used for each test on the platform. Time zero TER (TER0) was measured before incubation of the inserts with the test formulation. The top electrode will be as adjusted so that it is close to, but not making contact with, the top surface of the insert membrane. Background resistance of the blank insert should be about 5-20 ohms. For each TER determination, 100 μl of MatTek Air-100™ medium was added to the insert and 250 μl in the basal well followed by placement in the Endohm chamber. All TER values are reported as a function of the surface area of the tissue. Resistance was expressed as both Ohms*cm^2 and percent original TER value.
TER values were calculated as: [formula] [formula] Formula terms for TER calculation defined: […]
A decrease in TER value relative to the control value indicates a decrease in cell membrane resistance and an increase in mucosal epithelial cell permeability.
as §1

[3] = tested on: human-derived tracheal/bronchial epithelial cells (EpiAirway™ Tissue model system); assay: FITC-Dextran (FD3) permeation assay, EpiAirway tissue model; settings: for % FD3 Permeation: 1 h at 37° C.
Protocol: A FITC labeled dextran with a molecular weight 3000 (FD3) was used to assess the efficacy of individual TJMP on epithelial cell monolayer permeation. The tissue insert plates were transferred to a 96-well receiver plate containing 200 μl of DPBS++ as basal media. The apical surface of each tissue culture insert was incubated with a 20 μl sample of a single test formulation (refer to Table 4 in Example 2 for details of test formulations) for one hour at 37° C. in the dark on a shaker (˜100 rpm). Following the 1 hour incubation period, underlying basal media samples were taken from each tissue culture insert and temporarily stored in the dark at room temperature until FD3 levels were quantified by fluorescence spectroscopy. For FD3 measurements, a 150 μl of basal media sample was transferred to a black, clear bottom 96-well plate. Fluorescence emission at 528/20 following excitation at 485/20 were measured using a FLx800 fluorescence plate reader from Biotek Instruments.
Permeation was calculated as: [formula] [formula] Formula terms for permeation defined: […]
as §1

Question: For CNGRCGGKKKLKLLLKLL [PN679], which LDH ([1]; 25 μM peptide) is on record?
Answer: The LDH was 1%.

Question: What about the LDH ([1]; 100 μM peptide) of the same sequence?
Answer: Its LDH is 23%.

Question: What about the LDH ([1]; 250 μM peptide) of the same sequence?
Answer: Its LDH is 38%.

Question: What about the LDH ([1]; 500 μM peptide) of the same sequence?
Answer: The LDH was 50%.

Question: And the LDH ([1]; 1000 μM peptide)?
Answer: The LDH was 51%.

Question: And the “% T0 TER” value ([2]; 25 μM peptide)?
Answer: Its value is 70%.

Question: What about the “% T0 TER” value ([2]; 100 μM peptide) of the same sequence?
Answer: The value was 7%.

Question: What about the “% T0 TER” value ([2]; 250 μM peptide) of the same sequence?
Answer: Its value is 2%.

Question: And the “% T0 TER” value ([2]; 500 μM peptide)?
Answer: Its value is −2%.

Question: What about the “% T0 TER” value ([2]; 1000 μM peptide) of the same sequence?
Answer: Its value is −2%.

Question: What about the “% FD3 Permeation” value ([3]; 25 μM peptide) of the same sequence?
Answer: The value was 0%.

Question: What about the “% FD3 Permeation” value ([3]; 100 μM peptide) of the same sequence?
Answer: Its value is 7%.

Question: And the “% FD3 Permeation” value ([3]; 250 μM peptide)?
Answer: Its value is 8%.

Question: And the “% FD3 Permeation” value ([3]; 500 μM peptide)?
Answer: Its value is 10%.

Question: And the “% FD3 Permeation” value ([3]; 1000 μM peptide)?
Answer: The value was 10%.

Question: And the optimal concentration ([3]; based on observed TER reduction, sample permeation and cytotoxicity (LDH release))?
Answer: The optimal concentration was 100 µM.
